“Also recorded” adds a separate entry of the source. Read-outs that look alike come from different tables or passages of the source.
Assays:
[1] = system: S2− InsP3R-1; experiment: CCh concentration-response of Ca2+ release in Dt-40 3ko cells expressing m3R and S2− InsP3R-1 constructs; type: cell-based, rat; details: for maximum peak Δ response to CCh: Fura-2 340/380 ratio; for fold change from WT (CCh EC50): S2 − InsP3R-1 constructs, Table 2; for EC50: fit of normalized initial peak, read-out: EC50 for CCh-induced Ca^2+ release
Excerpt: The rat S2^+ InsP3R-1 in the expression plasmid pIRES-GFP was digested with the restriction endonuclease SalI. The overhang created by digestion was blunted by using T4 polymerase. An EcoRI linker was then ligated onto the blunted ends of the construct. The entire receptor DNA was excised from the plasmid using EcoRI and ligated into the plasmid MXT-1. The region containing the S2^− splice variant and potential PKA phosphorylation sites was excised from its backbone in pCDNA 3.1+ by RsrII and KasI and ligated into the InsP3R construct in MXT-1. The potential PKA phosphorylation sites Ser-1589 and Ser-1755 were mutated, individually in both splice variants and together in the S2^− splice variant, to alanines or glutamates by using sequential PCR mutagenesis. The outside primers used for the mutagenesis reaction flanked the restriction sites RsrII and KasI. Following mutation, the resulting fragments were cut with RsrII and KasI and inserted into the InsP3R-1 backbone at the corresponding sites. The mutations were confirmed by Big Dye fluorescent sequencing. Mutated receptor DNAs were excised from MXT-1 by using EcoRI and ligated into the mammalian expression vector pGW (provided by Dr. David Yue, Johns Hopkins University). Orientation was confirmed by using restriction enzyme digestion. Mutants were named based on the splice variant, either S2+ or S2− followed by the amino acid present at position 1589 and 1755. Thus, a mutation in S2^+ InsP3R-1 S1755E is designated, “S2+SE,” and in InsP3R-1 […] S1755A is designated “S2^−SA”. Similarly, an S2− InsP3R-1 with mutations in both S1589E and S1755E is designated “S2−EE”. The numbering of residues is based on the full-length rat InsP3R-1.
Dt-40 cells lacking all three InSP3 receptor subtypes were transfected by using electroporation at 350 V and 950 microfarads (4-mm gap cuvette). 2×10^7 cells were co-transfected with 25 μg of the InsP3R-1 cDNA, 25 μof the muscarinic type 3 (m3R) receptor DNA, and 4 μg of the red fluorescent protein plasmid pHcRed1-N1 (Clontech). Cells were incubated with DNA in 500 μl of Opti-MEM media (Invitrogen) on ice for 10 min. The cell/DNA mixture was electroporated, incubated on ice for 30 min, increased to 5 ml with Opti-MEM, and placed in a 5% CO2 incubator at 39° C. for 5 h. The cells were then centrifuged and resuspended in 12 ml of complete RPMI media (Invitrogen). Transfection efficiency was typically ˜20%. Experiments were performed within 32 h of transfection.
Transfected Dt-40 3ko cells were washed once in a HEPES-buffered physiological saline solution (HEPES-PSS) containing (in mM) 5.5 glucose, 137 NaCl, 0.56 MgCl2, 4.7 KCl, 1 Na2HPO4, 10 HEPES (pH 7.4), 1.2 CaCl2, and 1% w/v bovine serum albumin. Cells were then resuspended in bovine serum albumin HEPES-PSS with 1 μM Fura-2 (AM), placed on a 15-mm glass coverslip in a low volume perfusion chamber, and allowed to adhere for 30 min at room temperature. Cells were perfused continuously for 10 min with HEPES-PSS before experimentation to allow complete Fura-2 de-esterification. A field of cells for each experiment was chosen that contained a wide range of transfection efficiency based upon the intensity of red fluorescence emitted when excited at 560 nm. Individual cells that had emission gray levels between 1500 and 2500 were subsequently chosen to standardize expression levels. [Ca^2+]i imaging was performed essentially as described previously by using an inverted epifluorescence Nikon microscope with a 40× oil immersion objective lens (numerical aperture, 1.3) (100). Cells were excited alternately with light at 340 and 380±10 nm bandpass filters (Chroma, Rockingham, Vt.) using a monochrometer (TILL Photonics, Pleasanton, Calif.). Fluorescence images were captured and digitized with a digital camera driven by TILL Photonics software. Images were captured every 2 s with an exposure of 2 ms and 4 by 4 binning. 340/380 ratio images were calculated online and stored immediately to a hard disk. […]

[2] = system: S2− InsP3R-1; experiment: Ca2+ oscillations after α-IgM antibody stimulation of Dt-40 3ko cells expressing S2− constructs; type: cell-based, rat; details: for Ca^2+ signal pattern: 250 ng/ml α-IgM antibody (threshold)
Excerpt: Cells transfected with WT and mutant S2− isoforms were stimulated with varying concentrations of an α-IgM antibody (Southern Biotechnology Associates, Inc., Birmingham, Ala.). Infrequent Ca^2+ oscillations were produced presumably through B cell receptor cross-linking, activation of phospholipase C-γ, and subsequent production of InsP3.
In many nonelectrically excitable cell types, the physiological mode of Ca^2+ signaling is through the generation of Ca^2+ oscillations (1, 108). Moreover, it is a generally held view that the spatial and temporal properties of Ca^2+ oscillations make an important contribution to defining the fidelity and specificity of Ca^2+ signaling. In many current models addressing the mechanism underlying Ca^2+ oscillations, a key feature is the regulation of Ca^2+ release through InsP3R. Experiments were then designed to assess the consequences of InsP3R-1 phosphorylation (expressed in isolation) on the initiation and generation of Ca^2+ oscillations. An α-IgM antibody was chosen to stimulate and to initiate Ca^2+ oscillations through activation of the endogenous B cell receptor, phospholipase C-γ activation, and the formation of InsP3. Dt-40 3ko cells expressing either S2−WT or S2−EE to mimic PKA phosphorylation of the InsP3R-1 were stimulated with various concentrations of α-IgM antibody as illustrated by the selection of representative traces in FIG. 24. […] This latter observation presumably reflects the fact that the frequency of oscillations is primarily defined by mechanisms such as Ca^2+ feedback (109) rather than the absolute sensitivity of the InsP3R-1 to InsP3 within a defined range. […] Given the almost ubiquitous expression of various forms of InsP3R-1, this is likely a generally important phenomenon. […] These include modulation of InSP3 binding, an idea supported by measurements of InsP3R binding in hepatocytes (112) (presumably S2− InsP3R-1 and InsP3R-2). In these studies the apparent affinity of InsP3 binding was enhanced ˜2-fold at resting [Ca^2+], and the [Ca^2+] necessary for half-maximal stimulation of InsP3 binding was reduced. In contrast, a study of recombinant S1−S2+InsP3R-1 expressed in SF9 cells and reconstituted into lipid bilayers has reported a similar increase in InsP3R sensitivity to InsP3 but that the bell-shaped Ca^2+ sensitivity of channel opening is not altered following phosphorylation of the InsP3R-1 (23). These findings indicate that modulation of the Ca^2+ sensitivity of channel activity is unlikely to account for the increased apparent sensitivity of the receptor, at least in this form of the InsP3R-1. There are a number of alternative mechanisms for altering InsP3R-1 sensitivity are conceivable. For example, phosphorylation of the receptor could alter the gating of the channel directly. In addition, phosphorylation might secondarily modulate the receptor by regulation of the association of regulatory factors such as proteins or adenine nucleotides (113-115).

[3] = listed as S1589E/S1755E mutant InsP3R-1

Row | Substance | fold change from WT (CCh EC50) [1] [fold] | maximal response in full CCh concentration-response curve [1] | Ca^2+ signal pattern [2] | latency before the increase in Ca^2+ versus S2−WT ([2]; 500 ng/ml α-IgM antibody) | magnitude of the initial transient versus WT ([2]; 500 ng/ml α-IgM antibody) | latency, frequency or initial peak magnitude versus S2−WT ([2]; 1 μg/ml α-IgM antibody) | sensitivity of CCh-induced Ca^2+ release relative to other constructs [1] | maximum peak Δ response to CCh [1] | EC50 [1] [nM] | fold more sensitive than nonphosphorylatable S1589A/S1755A S2− InsP3R-1 ([1]; listed as S2− mutant) [fold] | fold more sensitive than wild type S2− InsP3R-1 (CCh-induced Ca^2+ release) ([1]; listed as S2− mutant) [fold] | fold more sensitive than nonphosphorylatable S1589A/S1755A S2− InsP3R-1 [1, 3] | fold more sensitive than wild type S2− InsP3R-1 (CCh-induced Ca^2+ release) [1, 3] | sensitivity of CCh-induced Ca^2+ release relative to other constructs [1, 3] | fold more sensitive than wild type S2− InsP3R-1 (CCh-induced Ca^2+ release) [1] [fold]
1 | G1690A: InsP3R-1 S2− variant with glycine to alanine substitution at position 1690 (nucleotide binding site mutant) | – | comparable to that seen in the wild-type receptor | – | – | – | – | – | – | – | – | – | – | – | – | –
2 | S2−EE: phosphomimetic S1589E/S1755E mutant of the short splice variant | 7.6 | – | repetitive Ca^2+ transients following a much shorter latency; also recorded: multiple Ca^2+ transients | significantly shorter | significantly larger | indistinguishable | greatest | 1.13+0.1 ratio units | 4.3 | ~50 | 7.5 | approximately 35 fold | approximately 7.5 fold | markedly potentiated Ca^2+ release | –
3 | S2−SE: phosphomimetic short splice variant of S1755E | 2.4 | – | – | – | – | – | intermediate sensitivity | 0.78±0.1 ratio units | 13.5 ± 1 | – | – | – | – | – | ~3

Continued, in another order:

Row | fold change from WT (CCh EC50) [1] [fold] | Substance | maximal response in full CCh concentration-response curve [1] | Ca^2+ signal pattern [2] | latency before the increase in Ca^2+ versus S2−WT ([2]; 500 ng/ml α-IgM antibody) | magnitude of the initial transient versus WT ([2]; 500 ng/ml α-IgM antibody) | latency, frequency or initial peak magnitude versus S2−WT ([2]; 1 μg/ml α-IgM antibody) | sensitivity of CCh-induced Ca^2+ release relative to other constructs [1] | maximum peak Δ response to CCh [1] | EC50 [1] [nM] | fold more sensitive than nonphosphorylatable S1589A/S1755A S2− InsP3R-1 ([1]; listed as S2− mutant) [fold] | fold more sensitive than wild type S2− InsP3R-1 (CCh-induced Ca^2+ release) ([1]; listed as S2− mutant) [fold] | fold more sensitive than nonphosphorylatable S1589A/S1755A S2− InsP3R-1 [1, 3] | fold more sensitive than wild type S2− InsP3R-1 (CCh-induced Ca^2+ release) [1, 3] | sensitivity of CCh-induced Ca^2+ release relative to other constructs [1, 3] | fold more sensitive than wild type S2− InsP3R-1 (CCh-induced Ca^2+ release) [1] [fold]
4 | 2.6 | S2−ES: phosphomimetic short splice variant S1589E | – | – | – | – | – | intermediate sensitivity | 0.54±0.1 ratio units | 12.4 ± 0.5 | – | – | – | – | – | ~3
5 | 1 | S2−WT: wild-type rat type-1 InsP3 receptor, peripheral short S2− splice variant (SEQ ID NO: 17) | – | single small increase in [Ca^2+]i after a long latency; also recorded: single Ca^2+ transient after a long latency | – | – | – | – | 0.9±0.1 ratio units | 32.6 ± 7.5 | – | – | – | – | – | –
